Measured values taken from patent US9266814B2, “Use of nitrooxy organic molecules in feed for reducing methane emission in ruminants, and/or to improve ruminant performance” (DSM IP ASSETS B.V., priority 2010, dated 2016).
Values joined by “and” are separate entries in the source; they are usually repeats but may differ in a detail not shown here. Equal values may be shown once. Read-outs that look alike come from different tables or passages of the source. Marks after values point to notes of the source that are not given here.

How the values were obtained:
[1] = system: methanogenesis in rumen liquor; assay: In vitro test for methane production (modified Hohenheim Forage value Test); type: cell-based; conditions: for inhibition at 0.5 % / inhibition at 2 % / inhibition at 0.005 % / inhibition at 0.01 % / inhibition at 0.05 % / inhibition at 0.1 % / inhibition at 1 %: read-out: effect on methanogenesis (%)
[2] = system: methanogenic archaea (mcrA gene); type: in vivo, sheep
[3] = system: volatile fatty acid profile and ammonia N concentration in the rumen; type: in vivo, sheep
[4] = system: methane emissions by sheep; type: in vivo
[5] = system: total bacteria (16S rRNA); type: in vivo, sheep
[6] = system: protozoa (18S rRNA); type: in vivo, sheep
[7] = system: methane production of dairy cows; design: species or system Holstein X Friesian dairy cows; conditions: in vivo
[8] = rumen of sheep, 100 mg per animal and day
[9] = rumen of sheep, mcrA gene qPCR, 100 mg per animal and day
[10] = rumen of sheep, samples of days 29 and 30, 100 mg per animal and day
[11] = sheep, 100 mg per animal and day via ruminal cannula, day 14
[12] = sheep, 100 mg per animal and day via ruminal cannula, day 29
[13] = sheep, 100 mg per animal and day via ruminal cannula, day 30
[14] = sheep, 100 mg per animal and day via ruminal cannula, days 29-30 pooled
[15] = rumen of sheep, 16S rRNA qPCR, 100 mg per animal and day
[16] = rumen of sheep, 18S rRNA qPCR, 100 mg per animal and day
[17] = 8 h, comparative example, 0.1% DM, average of two experiments

O=[N+]([O-])OCC(CCc1ccccc1)O[N+](=O)[O-] (racemic) [Compound 2, rac-4-Phenylbutane-1,2-diyl dinitrate]
inhibition at 0.5 % ([1]; 8 h): 4%
inhibition at 2 % ([1]; 8 h): 10%

CCOC(=O)CCO[N+](=O)[O-] [Additive 1, ethyl-3-nitrooxypropionate, reference compound]
Archaea ΔCt (relative abundance in relation to total bacteria) [2, 8]: 0.022
Archaea [2, 9]: 2.86 * 10^8 copy gene numbers/g fresh matter
Archaea log 10 [2, 9]: 8.45 log copy gene numbers/g fresh matter
Acetate [3, 10]: 67.5^b mol/100 mol
Butirate [3, 10]: 2.05 mol/100 mol
C2/C3 (acetate to propionate ratio) [3, 10]: 4.09^a
Propionate [3, 10]: 16.6^a mol/100 mol
Total (volatile fatty acids) [3, 10]: 58.2
Valerate [3, 10]: 1.94 mol/100 mol
iso-butirate [3, 10]: 10.1 mol/100 mol
iso-valerate [3, 10]: 1.79 mol/100 mol
CH4 l, day [4, 11]: 21.9 l, day
CH4 l/kg intake [4, 11]: 25.6 l/kg intake
CH4 l, day [4, 12]: 20.9 l, day
CH4 l/kg intake [4, 12]: 21.7 l/kg intake
CH4 l, day [4, 13]: 21.8 l, day
CH4 l/kg intake [4, 13]: 23.2 l/kg intake
CH4 l, day [4, 14]: 21.5 l, day
CH4 l/kg intake [4, 14]: 22.6 l/kg intake
reduction of methane emissions (liters per kg of fresh matter intake) against the control ([4]; sheep, 100 mg per animal and day, day 14): 14%
Total bacteria [5, 15]: 9.08 * 10^10 copy gene numbers/g fresh matter
Total bacteria log 10 [5, 15]: 10.9 log copy gene numbers/g fresh matter
Total protozoa ΔCt (relative abundance in relation to total bacteria) [6, 8]: 1.58
Total protozoa [6, 16]: 1.87 * 10^10 copy gene numbers/g fresh matter
Total protozoa log 10 [6, 16]: 10.2 log copy gene numbers/g fresh matter

O=[N+]([O-])OCCCO [Compound 1, 3-Nitrooxypropanol]
Archaea ([2]; in vivo): 2.86 * 10^8 copy gene numbers/g fresh matter
Archaea log 10 ([2]; in vivo): 8.34 log copy gene numbers/g fresh matter
Archaea ΔCt (relative abundance in relation to total bacteria) ([2]; in vivo): 0.020
Acetate ([3]; in vivo): 64.5^a mol/100 mol
Butirate ([3]; in vivo): 2.11 mol/100 mol
C2/C3 (acetate to propionate ratio) ([3]; in vivo): 3.89^a
Propionate ([3]; in vivo): 17.5^b mol/100 mol
Total (volatile fatty acids) ([3]; in vivo): 57.1
Valerate ([3]; in vivo): 1.82 mol/100 mol
iso-valerate ([3]; in vivo): 1.82 mol/100 mol
CH4 l, day ([4]; in vivo): 18.3 l, day and 19.7 l, day and 19.1 l, day and 20.0 l, day
CH4 l/kg intake ([4]; in vivo): 22.5 and 19.6 and 25.6 and 23.1
reduction of methane emissions (liters per kg of fresh matter intake) against the control ([4]; in vivo): 23%
CH4, L/d [7]: 555 L/day and 536 L/day
CH4, L/kg DMI [7]: 29.9 L/kg DMI and 29.2 L/kg DMI
CH4, g/d [7]: 398 g/day and 384 g/day
Total bacteria ([5]; in vivo): 9.74 * 10^10 copy gene numbers/g fresh matter
Total bacteria log 10 ([5]; in vivo): 11.0 log copy gene numbers/g fresh matter
Total protozoa ([6]; in vivo): 2.51 * 10^10 copy gene numbers/g fresh matter
Total protozoa log 10 ([6]; in vivo): 10.2 log copy gene numbers/g fresh matter
Total protozoa ΔCt (relative abundance in relation to total bacteria) ([6]; in vivo): 1.55
inhibition at 0.005 % ([1]; 8 h): 20%
inhibition at 0.01 % ([1]; 8 h): 79%
inhibition at 0.05 % ([1]; 8 h): 100%
inhibition at 0.1 % ([1]; 8 h): 100%
inhibition at 0.5 % ([1]; 8 h): 100%
inhibition at 2 % ([1]; 8 h): 100%

CCNS(=O)(=O)CCCO[N+](=O)[O-] [Compound 4, N-Ethyl-3-nitrooxy-propionic sulfonyl amide]
inhibition at 0.05 % ([1]; 8 h): 10%
inhibition at 0.1 % ([1]; 8 h): 24%
inhibition at 0.5 % ([1]; 8 h): 99%
inhibition at 2 % ([1]; 8 h): 99%

CCC(=O)OCCCO[N+](=O)[O-] [Compound 7, 3-Nitrooxy-propyl propionate]
inhibition at 0.005 % ([1]; 8 h): 6%
inhibition at 0.01 % ([1]; 8 h): 21%
inhibition at 0.05 % ([1]; 8 h): 100%
inhibition at 0.1 % ([1]; 8 h): 100%

O=C(OCCCO[N+](=O)[O-])c1ccccc1 [Compound 11, 3-Nitrooxy-propyl benzoate]
inhibition at 0.01 % ([1]; 8 h): 11%
inhibition at 0.1 % ([1]; 8 h): 99%
inhibition at 1 % ([1]; 8 h): 99%

CCCCCC(=O)OCCCO[N+](=O)[O-] [Compound 12, 3-Nitrooxy-propyl hexanoate]
inhibition at 0.01 % ([1]; 8 h): 42%
inhibition at 0.1 % ([1]; 8 h): 99%
inhibition at 1 % ([1]; 8 h): 98%

O=[N+]([O-])OCc1ccccc1 [Compound 14, Benzylnitrate]
inhibition at 0.05 % ([1]; 8 h): 3%
inhibition at 0.1 % ([1]; 8 h): 37%
inhibition at 0.5 % ([1]; 8 h): 100%
inhibition at 2 % ([1]; 8 h): 100%

O=C(NCCO[N+](=O)[O-])c1cccnc1 [Compound 16, N-[2-(Nitrooxy)ethyl]-3-pyridinecarboxamide]
inhibition at 1 % ([1]; 1% DM, reduction in methane vs control, 8 hours at 39° C., average of two experiments): 100%

O=[N+]([O-])[O-].[Na+] [Na NO3, reference compound]
effect on methanogenesis (%) ([1]; comparative example, 0.5% DM, average of two experiments): 2%
effect on methanogenesis (%) ([1]; comparative example, 2% DM, average of two experiments): 23%

O=[N+]([O-])CCCO [reference compound]
inhibition at 0.1 % [1, 17]: 2%

COCCCO [reference compound]
inhibition at 0.1 % [1, 17]: 8%

CCOC(=O)CCO [reference compound]
inhibition at 0.1 % [1, 17]: 6%
